Source: patent US20060106005A1, “Funtionalised metallocenes as anticancer drugs” (priority 2003, published 2006)
pIC50: −log10 of the molar value. Where two headings read alike, the source gives them in different places.

What was measured:
A2780 = assay: Sensitivity of cell lines to Cisplatin and Ti compounds (A2780); assay type: cell-based; conditions: for relative sensitivity of cell lines: A2780, relative to LoVo; for DIFFERENTIAL: IC50 of 2 relative to Cisplatin
LoVo = assay: Sensitivity of cell lines to Cisplatin and Ti compounds (LoVo); assay type: cell-based; conditions: for relative sensitivity of cell lines: LoVo (reference line = 1)
A2780-cis = assay: Anti-proliferative effect on cisplatin-resistant A2780-cis; assay type: cell-based; conditions: for relative sensitivity of A2780 and A2780cis cell lines: relative to A2780 144 hr; for relative sensitivity of cell lines: relative to LoVo; for DIFFERENTIAL: IC50 of 2 relative to Cisplatin
Description: In order to determine whether these types of complexes overcome platinum resistance in vitro, the anti-proliferative effects of 2 on cisplatin-resistant […] were examined (see Table 3).

MCF-7 = assay: Sensitivity of cell lines to Cisplatin and Ti compounds (MCF-7); assay type: cell-based; conditions: for relative sensitivity of cell lines: MCF-7, relative to LoVo
LS 174T = assay: Sensitivity of cell lines to Cisplatin and Ti compounds (LS 174T); assay type: cell-based; conditions: for relative sensitivity of cell lines: LS-174T, relative to LoVo
LX1 = conditions: LX1, histologically unclassified lung tumour; cited from earlier work
[1] = system: xenografted tumours of the colon, head, breast, rectum, lung and stomach; conditions: in vivo; cited from earlier work
[2] = system: certain cancer cell lines; conditions: compared to Cp2TiCl2
[3] = A2780 (24 hour), read-out: IC50
[4] = A2780, exposure time 24 hr, relative to A2780 144 hr
[5] = A2780, exposure time 144 hr (reference = 1)
[6] = A2780-cis (24 hour), read-out: IC50

Row | Compound | pIC50 (A2780; [3]) | relative sensitivity of A2780 and A2780cis cell lines (A2780; [4]) | relative sensitivity of A2780 and A2780cis cell lines (A2780; [5]) | relative sensitivity of cell lines (A2780) | pIC50 (A2780; A2780, read-out: IC50) | pIC50 (LoVo; LoVo) | relative sensitivity of cell lines (LoVo) | pIC50 (A2780-cis; [6]) | pIC50 (A2780-cis; A2780-cis, read-out: IC50) | relative sensitivity of A2780 and A2780cis cell lines (A2780-cis; A2780cis, exposure time 24 hr) | relative sensitivity of A2780 and A2780cis cell lines (A2780-cis; A2780cis, exposure time 144 hr) | relative sensitivity of cell lines (A2780-cis; A2780cis) | relative sensitivity of cell lines (MCF-7) | pIC50 (LS 174T; LS 174T) | relative sensitivity of cell lines (LS 174T) | anti-tumour activity against LX1 (LX1) | also measured
1 | N.N.[Cl][Pt][Cl] [Cisplatin, cisplatin, reference compound] | 6.00 | 1.22 | 1 | 2.2 | 6.09 | 6.43 | 1 | 5.27 | 5.68 | 6.59 | 2.56 | 5.7 | 24.3 | 6.30 | 1.35 |  | resistance relative to 2 (times more resistant) (A2780-cis; cisplatin-resistant A2780, after 144 hours): 3 times
2 | C1=C[CH]([Ti+2][CH]2C=CC=C2)C=C1.[Cl-].[Cl-].[Ti+2].c1cc[cH-]c1.c1cc[cH-]c1 [Cp2TiCl2, titanocene (bis-cyclopentadienyl titanium)dichloride] |  |  |  |  |  |  |  |  |  |  |  |  |  |  |  | no significant anti-tumour activity | sensitivity of xenografted tumours [1]: significantly sensitive
3 | [Cl-].[Cl-].[V+4].c1cc[cH-]c1.c1cc[cH-]c1 [Cp2VCl2, vanadocene(bis-cyclopentadienyl vanadium)dichloride] |  |  |  |  |  |  |  |  |  |  |  |  |  |  |  | significant activity | 
4 | [Cp(CH2)2NH(CH2)5]2TiCl2.2HCl [compound 2] | 3.77 | 5.42 | 1 | 0.5 | 4.51 | 4.21 | 1 | 3.81 | 4.55 | 4.97 | 0.90 | 0.45 | 1 | 4.44 | 0.58 |  | potency relative to Cp2TiCl2 (times more potent) [2]: around 10 times; DIFFERENTIAL (A2780; A2780 (24 hour)): 168 µM; pIC50 (A2780; A2780, 7 days, read-out: IC50 (7 days)): 4.00; DIFFERENTIAL (A2780; A2780): 37.8 µM; DIFFERENTIAL (LoVo; LoVo, IC50 of 2 relative to Cisplatin): 167.6 µM; DIFFERENTIAL (A2780-cis; A2780-cis (24 hour)): 28.5 µM; DIFFERENTIAL (A2780-cis; A2780-cis): 13.3 µM; pIC50 (A2780-cis; A2780cis, 7 days, read-out: IC50 (7 days)): 5.37; pIC50 (MCF-7; MCF-7): 4.21; DIFFERENTIAL (MCF-7; MCF-7, IC50 of 2 relative to Cisplatin): 6.9 µM; DIFFERENTIAL (LS 174T; LS 174T, IC50 of 2 relative to Cisplatin): 72 µM
